One assay has as its target T1, 5-HT6 receptor (Homo sapiens, UniProt P50406).
T1 construct: purchased PerkinElmer
Nature of the assay: Radioligand binding assay, serotoninergic 5-HT6 receptors.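 Also: test compound at 1 µM.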 Conditions: binding assay result in %, Table 5a. From the text: (§1) The specific ligand binding to the receptors is defined as the difference between the total binding and the non-specific binding determined in the presence of the excess of unlabelled ligand.
(§2) The results are expressed as a percent of control specific binding ((measured specific binding/control specific binding)×100) and as a percent inhibition of control specific binding (100−((measured specific binding/control specific binding)×100)) obtained in the presence of the test compounds. The specific ligand binding to the receptors is defined as the difference between the total binding and the nonspecific binding determined in the presence of an excess of unlabelled ligand. Scintillation counting was the method of detection of ligand binding. The IC50 values (concentration causing a half-maximal inhibition of control specific binding) were determined by non-linear regression analysis of the competition curves generated with mean replicate values using Hill equation curve fitting (Y=D+[(A−D)/(1+(C/C50)nH)], where Y=specific binding, D=minimum specific binding, A=maximum specific binding, C=compound concentration, C50=IC50, and nH=slope factor). This analysis was performed using a software developed at Cerep (Hill software) and validated by comparison with data generated by the commercial software SigmaPlot® 4.0 for Windows® (© 1997 by SPSS Inc.). The inhibition constants (Ki) were calculated using the Cheng Prusoff equation (Ki=IC50/(1+(L/KD)), where L=concentration of radioligand in the assay, and KD=affinity of the radioligand for the receptor). A scatchard plot was used to determine the Kd.
(§3) Experimental conditions for tests are given in Table 4, and results of tests for representative compounds of the invention are given in Table 5a and 5b (receptors 5-HT1A, 5-HT2A, 5-HT6 and 5-HT7) and in Table 6 (receptors 5-HT2C).
5-HT6: Bryan L. Roth. Assay Protocol Book. University of North Carolina At Chapel Hill. National Institute of Mental Health. Psychoactive Drug Screening Program. Available on-line at 31 Aug. 2008: http://pdsp.med.unc.edu/UNC-CH %20Protocol%20Book.pdf

For assay [1], the target named is dopaminergic receptors D2 (Homo sapiens, UniProt P14416). In words: Radioligand binding assay, dopaminergic D2 receptors. Conditions: binding assay, test compound 1×10^−6 M.
From the text: as §1, §2
(§4) Experimental conditions for tests are given in Table 1, the results of tests for representative compounds are given in Tables 2a and 2b (receptors D2 and D3) and in Table 3 (receptors D4).

Assay [2] deals with dopaminergic receptors D3 (Homo sapiens, UniProt P35462). Nature of the assay: Radioligand binding assay, dopaminergic D3 receptors. Conditions: test compound 1×10^−6 M.
From the text: as §1, §2, §4

In a further assay the target is T2, 5-HT7 receptor (Homo sapiens, UniProt P34969).
T2 construct: purchased PerkinElmer
In words: Radioligand binding assay, serotoninergic 5-HT7 receptors.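 Also: test compound at 1 µM.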 To be noted: binding assay result in %, Table 5a.
From the text: as §1, §2, §3
5-HT7: Bryan L. Roth. Assay Protocol Book. University of North Carolina At Chapel Hill. National Institute of Mental Health. Psychoactive Drug Screening Program. Available on-line at 31 Aug. 2008: http://pdsp.med.unc.edu/UNC-CH %20Protocol%20Book.pdf

Assay [3] addresses T3, 5-HT1A receptor (rat hippocampus) (Rattus norvegicus, UniProt P19327).
T3 construct: hippocampus; from tissue; host or cells: rat hippocampus
T3 sequence (P19327 1-422): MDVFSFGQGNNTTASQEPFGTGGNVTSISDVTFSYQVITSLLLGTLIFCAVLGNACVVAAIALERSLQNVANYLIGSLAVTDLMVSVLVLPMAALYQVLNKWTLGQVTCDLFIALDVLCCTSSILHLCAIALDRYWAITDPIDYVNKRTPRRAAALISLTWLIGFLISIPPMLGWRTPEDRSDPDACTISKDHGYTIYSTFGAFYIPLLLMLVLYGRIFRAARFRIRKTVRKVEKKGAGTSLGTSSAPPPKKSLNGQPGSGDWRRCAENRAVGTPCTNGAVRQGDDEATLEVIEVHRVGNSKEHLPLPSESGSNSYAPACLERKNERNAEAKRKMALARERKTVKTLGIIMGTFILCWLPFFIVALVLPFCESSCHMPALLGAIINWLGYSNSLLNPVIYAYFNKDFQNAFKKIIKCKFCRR
In words: Radioligand binding assay, serotoninergic 5-HT1A receptors.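 Also: test compound at 1 µM.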 Conditions: binding assay result in %, Table 5a.
From the text: as §1, §2, §3

A further assay deals with T4, 5-HT2A receptor (Homo sapiens, UniProt P28223).
T4 construct: purchased PerkinElmer
In words: Radioligand binding assay, serotoninergic 5-HT2A receptors. To be noted: binding assay result in %, Table 5a.
From the text: as §1, §2
5-HT2A: Bryan L. Roth. Assay Protocol Book. University of North Carolina At Chapel Hill. National Institute of Mental Health. Psychoactive Drug Screening Program. Available on-line at 31 Aug. 2008: http://pdsp.med.unc.edu/UNC-CH%20Protocol%20Book.pdf

Assay [4] deals with T5, serotonin transporter (SERT) (Homo sapiens, UniProt P31645).
T5 construct: expressed in transfected cells; host or cells: CHO cells
Nature of the assay: Radioligand binding assay, serotonin transporter (SERT). To be noted: binding assay, test compound 1×10^−6 M.
From the text: as §1, §2
Experimental conditions for tests are given in Table 12, and results of tests for representative compounds are given in Tables 13a and 13b.

T4 sequence (P28223 whole entry): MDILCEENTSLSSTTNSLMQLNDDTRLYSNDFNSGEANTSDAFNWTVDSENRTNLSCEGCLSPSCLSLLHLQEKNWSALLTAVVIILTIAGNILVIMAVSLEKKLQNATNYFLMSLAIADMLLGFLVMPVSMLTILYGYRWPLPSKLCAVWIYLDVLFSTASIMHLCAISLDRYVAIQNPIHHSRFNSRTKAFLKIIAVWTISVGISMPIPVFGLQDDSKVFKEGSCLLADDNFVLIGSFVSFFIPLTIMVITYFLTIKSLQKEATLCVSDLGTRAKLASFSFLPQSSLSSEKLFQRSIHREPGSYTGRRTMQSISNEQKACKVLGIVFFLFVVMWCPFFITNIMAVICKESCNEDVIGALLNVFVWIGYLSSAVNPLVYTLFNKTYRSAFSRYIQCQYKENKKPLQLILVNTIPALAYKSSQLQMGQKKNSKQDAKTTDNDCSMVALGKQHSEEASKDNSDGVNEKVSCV
T1 sequence (P50406 whole entry): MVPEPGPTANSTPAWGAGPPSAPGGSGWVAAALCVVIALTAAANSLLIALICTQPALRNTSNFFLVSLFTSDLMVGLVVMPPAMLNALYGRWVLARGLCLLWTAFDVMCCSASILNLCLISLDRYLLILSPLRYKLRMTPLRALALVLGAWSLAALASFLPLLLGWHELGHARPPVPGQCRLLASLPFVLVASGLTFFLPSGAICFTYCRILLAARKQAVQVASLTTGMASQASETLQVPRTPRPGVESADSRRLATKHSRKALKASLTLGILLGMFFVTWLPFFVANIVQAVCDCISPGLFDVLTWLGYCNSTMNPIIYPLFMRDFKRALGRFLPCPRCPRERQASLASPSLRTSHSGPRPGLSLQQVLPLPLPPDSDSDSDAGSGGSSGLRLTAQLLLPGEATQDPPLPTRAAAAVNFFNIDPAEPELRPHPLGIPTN
T5 sequence (P31645 whole entry): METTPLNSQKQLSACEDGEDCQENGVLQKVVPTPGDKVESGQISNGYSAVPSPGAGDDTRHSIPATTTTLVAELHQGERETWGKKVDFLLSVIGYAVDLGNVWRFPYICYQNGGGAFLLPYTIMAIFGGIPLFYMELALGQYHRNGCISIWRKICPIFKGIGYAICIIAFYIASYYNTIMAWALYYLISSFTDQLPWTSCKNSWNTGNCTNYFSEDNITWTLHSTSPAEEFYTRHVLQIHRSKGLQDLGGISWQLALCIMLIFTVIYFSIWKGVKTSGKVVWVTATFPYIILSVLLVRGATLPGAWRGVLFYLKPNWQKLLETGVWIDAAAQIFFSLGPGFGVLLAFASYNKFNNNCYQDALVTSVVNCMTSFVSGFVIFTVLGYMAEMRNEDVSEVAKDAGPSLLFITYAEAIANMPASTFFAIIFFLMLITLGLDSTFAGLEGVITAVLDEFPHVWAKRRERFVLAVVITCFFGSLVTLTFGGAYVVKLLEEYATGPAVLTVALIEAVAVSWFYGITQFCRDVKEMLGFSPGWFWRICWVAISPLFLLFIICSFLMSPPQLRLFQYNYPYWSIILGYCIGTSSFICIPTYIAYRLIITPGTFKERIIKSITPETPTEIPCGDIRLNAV
T2 sequence (P34969 whole entry): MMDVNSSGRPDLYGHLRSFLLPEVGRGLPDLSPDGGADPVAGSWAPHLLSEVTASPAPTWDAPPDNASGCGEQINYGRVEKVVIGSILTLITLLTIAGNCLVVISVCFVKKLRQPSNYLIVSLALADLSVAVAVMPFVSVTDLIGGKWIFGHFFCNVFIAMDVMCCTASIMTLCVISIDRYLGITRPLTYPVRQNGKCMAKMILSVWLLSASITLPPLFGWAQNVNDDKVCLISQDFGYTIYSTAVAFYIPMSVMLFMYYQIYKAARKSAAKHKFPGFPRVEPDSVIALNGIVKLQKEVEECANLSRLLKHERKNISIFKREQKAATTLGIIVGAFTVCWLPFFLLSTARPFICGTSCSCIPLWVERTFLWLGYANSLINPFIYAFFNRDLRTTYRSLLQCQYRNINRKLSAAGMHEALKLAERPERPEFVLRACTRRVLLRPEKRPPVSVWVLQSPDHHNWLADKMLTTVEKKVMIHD
Chain of dopaminergic receptors D3 (P35462 whole entry): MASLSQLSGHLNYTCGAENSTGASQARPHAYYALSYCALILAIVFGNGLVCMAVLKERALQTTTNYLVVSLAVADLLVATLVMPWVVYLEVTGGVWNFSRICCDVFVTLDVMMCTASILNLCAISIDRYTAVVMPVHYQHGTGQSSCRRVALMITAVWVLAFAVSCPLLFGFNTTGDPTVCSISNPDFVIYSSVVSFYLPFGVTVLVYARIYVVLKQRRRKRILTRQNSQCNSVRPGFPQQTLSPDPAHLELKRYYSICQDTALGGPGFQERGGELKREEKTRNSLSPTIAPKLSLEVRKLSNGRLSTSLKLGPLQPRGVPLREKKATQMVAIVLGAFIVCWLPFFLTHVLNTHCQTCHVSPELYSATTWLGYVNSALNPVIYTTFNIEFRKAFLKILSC
Chain of dopaminergic receptors D2 (P14416 whole entry): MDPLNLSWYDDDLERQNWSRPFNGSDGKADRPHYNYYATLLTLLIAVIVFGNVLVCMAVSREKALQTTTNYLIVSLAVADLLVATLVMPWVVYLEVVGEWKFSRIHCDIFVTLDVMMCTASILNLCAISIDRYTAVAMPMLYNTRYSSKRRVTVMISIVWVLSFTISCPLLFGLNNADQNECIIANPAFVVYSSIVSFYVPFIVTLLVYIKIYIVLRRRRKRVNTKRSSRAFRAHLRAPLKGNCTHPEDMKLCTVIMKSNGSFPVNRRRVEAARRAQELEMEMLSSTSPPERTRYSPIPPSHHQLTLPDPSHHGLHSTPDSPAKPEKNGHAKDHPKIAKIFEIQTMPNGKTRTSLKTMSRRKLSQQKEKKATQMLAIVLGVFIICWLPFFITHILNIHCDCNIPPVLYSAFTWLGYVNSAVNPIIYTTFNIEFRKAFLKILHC

As to “4-Fluoro-N-[[1-[3-(6-fluoro-1,2-benzoxazol-3-yl)propyl]azetidin-3-yl]methyl]benzenesulphonamide [Compound 147]”, the “5-HT6 [%]” value at 5-HT6 receptor came to 86%. Besides, the “D2 [%]” value in assay [1] came out at 88%. Besides, in assay [2], the “D3 [%]” value was determined as 74%. Also, the “5-HT7 [%]” value on 5-HT7 receptor worked out at 89%. Moreover, the “5-HT1A [%]” value in assay [3] came out at 60%. Moreover, the “5-HT2A [%]” value at 5-HT2A receptor worked out at 95%. In addition, the “SERT [%]” value in assay [4] stood at 24%.
With `Cn1ccc2c(S(=O)(=O)NCC3CCN(CCCc4noc5cc(F)ccc45)C3)cccc21` (stereo not drawn) [Compound 259, N-[[1-[3-(6-Fluoro-1,2-benzoxazol-3-yl)propyl]pyrrolidin-3-yl]methyl]-1-methyl-indole-4-sulphonamide], the inhibition at 1 µM on 5-HT6 receptor came to 92%; in assay [1], 84%; in assay [2] it was 61%; on 5-HT7 receptor, 91%; in assay [3] it was 42%; at 5-HT2A receptor it was 100%. The inhibition at 1 µM in assay [4] was -5%.
Regarding `O=S(=O)(NC1CCN(CCCc2noc3cc(F)ccc23)CC1)c1ccccc1` [Compound 32, N-[1-[3-(6-Fluoro-1,2-benzoxazol-3-yl)propyl]-4-piperidine]benzene-sulphonamide], the “5-HT6 [%]” value on 5-HT6 receptor was 63%. In addition, in assay [1], the “D2 [%]” value was 63%. Besides, the “D3 [%]” value in assay [2] was determined as 57%. The “5-HT7 [%]” value on 5-HT7 receptor came out at 92%. Also, the “5-HT1A [%]” value in assay [3] came to 37%. At 5-HT2A receptor, the “5-HT2A [%]” value turned out to be 83%. Besides, the “SERT [%]” value in assay [4] is listed as 5%.
In the case of `Cn1ccc2c(S(=O)(=O)NC3CCN(CCCc4noc5cc(F)ccc45)CC3)cccc21` [Compound 329, N-[1-[3-(6-Fluoro-1,2-benzoxazol-3-yl)propyl]-4-piperidyl]-1-methyl-indole-4-sulphonamide], the inhibition at 1 µM at 5-HT6 receptor was found to be 62%; in assay [1] it was 84%; in assay [2] it was 68%; on 5-HT7 receptor it was 97%; in assay [3], 49%; at 5-HT2A receptor it was 94%. Further, the inhibition at 1 µM in assay [4] turned out to be 43%.
Regarding `Cc1ccc(S(=O)(=O)NC2CCN(CCCc3noc4cc(F)ccc34)C2)cc1` (stereo not drawn) [Compound 209, N-[1-[3-(6-Fluoro-1,2-benzoxazol-3-yl)propyl]pyrrolidin-3-yl]-4-methyl-benzenesulphonamide], the inhibition at 1 µM was found to be 62% on 5-HT6 receptor; 64% in assay [1]; 34% in assay [2]; 90% on 5-HT7 receptor; 11% in assay [3]; 86% on 5-HT2A receptor. In assay [4], the inhibition at 1 µM turned out to be 6%.
In the case of `O=S(=O)(NCC1CCN(CCCc2noc3cc(F)ccc23)C1)c1ccc(Cl)cc1` (stereo not drawn) [Compound 242, 4-Chloro-N-[[1-[3-(6-fluoro-1,2-benzoxazol-3-yl)propyl]pyrrolidin-3-yl]methyl]benzenesulphonamide], the inhibition at 1 µM is 60% on 5-HT6 receptor; 55% in assay [1]; 71% in assay [2]; 83% at 5-HT7 receptor; 11% in assay [3]; 99% at 5-HT2A receptor. In addition, the inhibition at 1 µM in assay [4] came out at 37%.
For `COc1ccc(S(=O)(=O)NC2CCN(CCCc3noc4cc(F)ccc34)C2)cc1` (stereo not drawn) [Compound 213, N-[1-[3-(6-Fluoro-1,2-benzoxazol-3-yl)propyl]pyrrolidin-3-yl]-4-methoxybenzenesulphonamide], the inhibition at 1 µM stood at 78% on 5-HT6 receptor; 81% in assay [1]; 57% in assay [2]; 93% at 5-HT7 receptor; 63% in assay [3]; 100% at 5-HT2A receptor. In addition, the inhibition at 1 µM in assay [4] amounted to 12%.
For the molecule `Cc1cccc(S(=O)(=O)NCC2CN(CCCc3noc4cc(F)ccc34)C2)c1` [Compound 142, N-[[1-[3-(6-Fluoro-1,2-benzoxazol-3-yl)propyl]azetidin-3-yl]methyl]-3-methyl-benzenesulphonamide], the inhibition at 1 µM on 5-HT6 receptor came to 37%; in assay [1], 58%; in assay [2] it was 45%; on 5-HT7 receptor, 87%; in assay [3], 29%; at 5-HT2A receptor, 77%. For the same molecule, the inhibition at 1 µM in assay [4] is -4%.
Consider `O=S(=O)(NC1CCN(CCCc2noc3cc(F)ccc23)C1)c1ccc(Br)cc1` (stereo not drawn) [Compound 10, 4-Bromo-N-[1-[3-(6-fluoro-1,2-benzoxazol-3-yl)propyl]pyrrolidin-3-yl]benzenesulphonamide], for which the inhibition at 1 µM at 5-HT6 receptor amounted to 85%; in assay [1], 99%; in assay [2], 49%; on 5-HT7 receptor, 86%; in assay [3], 20%; on 5-HT2A receptor, 96%. In assay [4], the inhibition at 1 µM was -2%.
In the case of `O=S(=O)(NC1CCN(CCCc2noc3cc(F)ccc23)C1)c1ccc(Cl)cc1` (stereo not drawn) [Compound 208, 4-Chloro-N-[1-[3-(6-fluoro-1,2-benzoxazol-3-yl)propyl]pyrrolidin-3-yl]benzenesulphonamide], the inhibition at 1 µM at 5-HT6 receptor is 87%; in assay [1], 90%; in assay [2] it was 49%; at 5-HT7 receptor it was 96%; in assay [3], 9%; at 5-HT2A receptor, 100%. Also, the inhibition at 1 µM in assay [4] was -2%.
As to `Cc1cccc(S(=O)(=O)NC2CCN(CCCc3noc4cc(F)ccc34)CC2)c1` [Compound 33, N-[1-[3-(6-Fluoro-1,2-benzoxazol-3-yl)propyl]-4-piperidine]-3-methyl-benzenesulphonamide], the “5-HT6 [%]” value on 5-HT6 receptor is 91%. Besides, the “D2 [%]” value in assay [1] is listed as 54%. The “D3 [%]” value in assay [2] is 58%. The “5-HT7 [%]” value at 5-HT7 receptor was 100%. Also, the “5-HT1A [%]” value in assay [3] was determined as 22%. For the same molecule, the “5-HT2A [%]” value on 5-HT2A receptor was 97%. For the same molecule, the “SERT [%]” value in assay [4] is reported as −4%.
As to `O=S(=O)(NCC1CN(CCCc2noc3cc(F)ccc23)C1)c1cccc(O)c1` [Compound 149, N-[[1-[3-(6-Fluoro-1,2-benzoxazol-3-yl)propyl]azetidin-3-yl]methyl]-3-hydroxy-benzenesulphonamide], the inhibition at 1 µM on 5-HT6 receptor worked out at 71%; in assay [1], 91%; in assay [2] it was 39%; on 5-HT7 receptor, 113%; in assay [3] it was 82%; on 5-HT2A receptor, 96%. In assay [4], the inhibition at 1 µM came out at 22%.

(Values after patent US20140135310A1, “SULPHONAMIDE DERIVATIVES OF ALICYCLIC AMINES FOR THE TREATMENT OF CENTRAL NERVOUS SYSTEM DISEASES” (Adamed Sp. z o.o., priority 2011, published 2014).)
